Assay results from US10294234B2, “HIV inhibitor compounds” (priority 2017, dated 2019).
Read-outs that look alike come from different tables or passages of the source.

Tested on: HIV-1 (IIIB) in MT-4 cells
Assay: MT-4 HIV assay
Assay type: cell-based
Conditions: Human immunodeficiency virus 1, MT4, 120 h
In short: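 MT-4 cells infected with HIV-1 IIIB (1:250 stock dilution) were incubated with 1:3 serially diluted compounds in RPMI with 10% FBS for 5 days at 37 °C. Cell Titer Glo luminescence was the readout. Plates included mock-infected wells, no-drug wells and 5 uM AZT controls.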

[1] = HIV-1 (IIIB), MT-4 cells, 5 days, Cell Titer Glo, read-out: EC50

Compound	EC50 [1] [nM]	EC50 [nM]
COC(=O)N[C@H](C(=O)NN(Cc1c(F)cc(-c2ncccn2)cc1F)C[C@H](O)[C@H](Cc1ccc(C#Cc2ccc(N3CCN(C4COC4)CC3)nc2)cc1)NC(=O)[C@@H](NC(=O)OC)C(C)(C)C(F)(F)F)C(C)(C)C [Example 94, methyl ((5S,8S,9S,14S)-11-(2,6-difluoro-4-(pyrimidin-2-yl)benzyl)-9-hydroxy-15,15-dimethyl-8-(4-((6-(4-(oxetan-3-yl)piperazin-1-yl)pyridin-3-yl)ethynyl)benzyl)-3,6,13-trioxo-5-(1,1,1-trifluoro-2-methylpropan-2-yl)-2-oxa-4,7,11,12-tetraazahexadecan-14-yl)carbamate]	2.57	–
COC(=O)N[C@H](C(=O)N[C@@H](Cc1ccc(C#Cc2cnc(N3CC4CCC(C3)N4C3COC3)nc2)cc1)[C@@H](O)CN(Cc1c(F)cc(-c2ccn(C(F)F)n2)cc1F)NC(=O)[C@@H](NC(=O)OC)C12CC(C(F)(F)F)(C1)C2)C12CC(C(F)(F)F)(C1)C2 [Example 160, Methyl ((5S,8S,9S,14S)-11-(4-(1-(difluoromethyl)-1H-pyrazol-3-yl)-2,6-difluorobenzyl)-9-hydroxy-8-(4-((2-(8-(oxetan-3-yl)-3,8-diazabicyclo[3.2.1]octan-3-yl)pyrimidin-5-yl)ethynyl)benzyl)-3,6,13-trioxo-5,14-bis(3-(trifluoromethyl)bicyclo[1.1.1]pentan-1-yl)-2-oxa-4,7,11,12-tetraazatetradecan-14-yl)carbamate]	5700	–
COC(=O)N[C@H](C(=O)N[C@@H](Cc1ccc(C#Cc2ccc(N3CC4CCC(C3)N4C3COC3)nc2)cc1)[C@@H](O)CN(Cc1c(F)cc(-c2ccn([C@@H]3CCOC3)n2)cc1F)NC(=O)[C@@H](NC(=O)OC)C(C)(C)C(F)(F)F)C(C)(C)C(F)(F)F [Example 15, Methyl ((5S,8S,9S,14S)-11-(2,6-difluoro-4-(1-((R)-tetrahydrofuran-3-yl)-1H-pyrazol-3-yl)benzyl)-16,16,16-trifluoro-9-hydroxy-15,15-dimethyl-8-(4-((6-(8-(oxetan-3-yl)-3,8-diazabicyclo[3.2.1]octan-3-yl)pyridin-3-yl)ethynyl)benzyl)-3,6,13-trioxo-5-(1,1,1-trifluoro-2-methylpropan-2-yl)-2-oxa-4,7,11,12-tetraazahexadecan-14-yl)carbamate]	4.22	–
CC1(C(=O)N[C@H](C(=O)N[C@@H](Cc2ccc(-c3cnn(C(F)F)c3)cc2)[C@@H](O)CN(Cc2c(F)cc(-c3cnn(C(F)F)c3)cc2F)NC(=O)[C@@H](NC(=O)C2(C)CC2)C(C)(C)C(F)(F)F)C(C)(C)C(F)(F)F)CC1 [Example 216, N—((S)-1-(2-(4-(1-(difluoromethyl)-1H-pyrazol-4-yl)-2,6-difluorobenzyl)-2-((2S,3S)-4-(4-(1-(difluoromethyl)-1H-pyrazol-4-yl)phenyl)-2-hydroxy-3-((S)-4,4,4-trifluoro-3,3-dimethyl-2-(1-methylcyclopropane-1-carboxamido)butanamido)butyl)hydrazinyl)-4,4,4-trifluoro-3,3-dimethyl-1-oxobutan-2-yl)-1-methylcyclopropane-1-carboxamide]	114	–
COC(=O)N[C@H](C(=O)N[C@@H](Cc1ccc(C#Cc2ccc(N3CC4CCC(C3)N4[C@@H]3CCOC3)nc2)cc1)[C@@H](O)CN(Cc1c(F)cc(-c2ccn(C(F)F)n2)cc1F)NC(=O)[C@@H](NC(=O)OC)C(C)(C)C(F)(F)F)C(C)(C)C(F)(F)F [Example 143, Methyl ((5S,8S,9S,14S)-11-(4-(1-(difluoromethyl)-1H-pyrazol-3-yl)-2,6-difluorobenzyl)-16,16,16-trifluoro-9-hydroxy-15,15-dimethyl-3,6,13-trioxo-8-(4-((6-(8-((R)-tetrahydrofuran-3-yl)-3,8-diazabicyclo[3.2.1]octan-3-yl)pyridin-3-yl)ethynyl)benzyl)-5-(1,1,1-trifluoro-2-methylpropan-2-yl)-2-oxa-4,7,11,12-tetraazahexadecan-14-yl)carbamate]	7.79	–
COC(=O)N[C@H](C(=O)N[C@@H](Cc1ccc(C#Cc2ccc(N3CC4CCC(C3)N4C3COC3)cc2)cc1)[C@@H](O)CN(Cc1c(F)cc(-c2ccn(C(F)F)n2)cc1F)NC(=O)[C@@H](NC(=O)OC)C(C)(C)C(F)(F)F)C(C)(C)C(F)(F)F [Example 178, Methyl ((5S,8S,9S,14S)-11-(4-(1-(difluoromethyl)-1H-pyrazol-3-yl)-2,6-difluorobenzyl)-16,16,16-trifluoro-9-hydroxy-15,15-dimethyl-8-(4-((4-(8-(oxetan-3-yl)-3,8-diazabicyclo[3.2.1]octan-3-yl)phenyl)ethynyl)benzyl)-3,6,13-trioxo-5-(1,1,1-trifluoro-2-methylpropan-2-yl)-2-oxa-4,7,11,12-tetraazahexadecan-14-yl)carbamate]	10.3	–
COC(=O)N[C@H](C(=O)N[C@@H](Cc1ccc(C#Cc2ccc(N3CC4CCC(C3)N4C3COC3)nc2)cc1)[C@@H](O)CN(Cc1ccc(-c2ccn(CC(F)F)n2)cc1)NC(=O)[C@@H](NC(=O)OC)C(C)(C)C(F)(F)F)C(C)(C)C(F)(F)F [Example 3, Methyl ((5S,10S,11S,14S)-8-(4-(1-(2,2-difluoroethyl)-1H-pyrazol-3-yl)benzyl)-16,16,16-trifluoro-10-hydroxy-15,15-dimethyl-11-(4-((6-(8-(oxetan-3-yl)-3,8-diazabicyclo[3.2.1]octan-3-yl)pyridin-3-yl)ethynyl)benzyl)-3,6,13-trioxo-5-(1,1,1-trifluoro-2-methylpropan-2-yl)-2-oxa-4,7,8,12-tetraazahexadecan-14-yl)carbamate]	6.95	–
CC(C)([C@H](NC(=O)C1CC1)C(=O)N[C@@H](Cc1ccc(-c2cnn(C(F)F)c2)cc1)[C@@H](O)CN(Cc1c(F)cc(-c2ccn(C(F)F)n2)cc1F)NC(=O)[C@@H](NC(=O)C1CC1)C(C)(C)C(F)(F)F)C(F)(F)F [Example 213, N—((S)-1-(2-((2S,3S)-3-((S)-2-(cyclopropanecarboxamido)-4,4,4-trifluoro-3,3-dimethylbutanamido)-4-(4-(1-(difluoromethyl)-1H-pyrazol-4-yl)phenyl)-2-hydroxybutyl)-2-(4-(1-(difluoromethyl)-1H-pyrazol-3-yl)-2,6-difluorobenzyl)hydrazinyl)-4,4,4-trifluoro-3,3-dimethyl-1-oxobutan-2-yl)cyclopropanecarboxamide]	4.86	–
COC(=O)N[C@H](C(=O)N[C@@H](Cc1ccc(C#Cc2ccc(N3CC4CCC(C3)N4C3COC3)nc2)cc1)[C@@H](O)CN(Cc1c(F)cc(-c2ccn(C)n2)cc1F)NC(=O)[C@@H](NC(=O)OC)C(C)(C)C)C(C)(C)C [Example 22, Methyl ((5S,8S,9S,14S)-5-(tert-butyl)-1-(2,6-difluoro-4-(1-methyl-1H-pyrazol-3-yl)benzyl)-9-hydroxy-15,15-dimethyl-8-(4-((6-(8-(oxetan-3-yl)-3,8-diazabicyclo[3.2.1]octan-3-yl)pyridin-3-yl)ethynyl)benzyl)-3,6,13-trioxo-2-oxa-4,7,11,12-tetraazahexadecan-14-yl)carbamate]	3.24	–
COC(=O)N[C@H](C(=O)N[C@@H](Cc1ccc(C#Cc2ccc(N3CC4CCC(C3)N4C3COC3)nc2)cc1)[C@@H](O)CN(Cc1ccc(-c2ccccn2)cc1F)NC(=O)[C@@H](NC(=O)OC)C(C)(C)C(F)(F)F)C(C)(C)C(F)(F)F [Example 245, Methyl ((5S,8S,9S,14S)-16,16,16-trifluoro-11-(2-fluoro-4-(pyridin-2-yl)benzyl)-9-hydroxy-15,15-dimethyl-8-(4-((6-(8-(oxetan-3-yl)-3,8-diazabicyclo[3.2.1]octan-3-yl)pyridin-3-yl)ethynyl)benzyl)-3,6,13-trioxo-5-(1,1,1-trifluoro-2-methylpropan-2-yl)-2-oxa-4,7,11,12-tetraazahexadecan-14-yl)carbamate]	3.59	–
COC(=O)N[C@H](C(=O)N[C@@H](Cc1ccc(C#Cc2ccc(N3CCN(C(C)=O)CC3)nc2)cc1)[C@@H](O)CN(Cc1c(F)cc(-c2ccn(C)n2)cc1F)NC(=O)[C@@H](NC(=O)OC)C(C)(C)C)C(C)(C)C [Example 228]	–	1.66
COC(=O)N[C@H](C(=O)N[C@@H](Cc1ccc(-c2ccc(N3CC4CC(C3)N4C3COC3)nc2)cc1)[C@@H](O)CN(Cc1c(F)cc(-c2ccn(C(F)F)n2)cc1F)NC(=O)[C@@H](NC(=O)OC)C(C)(C)C(F)(F)F)C(C)(C)C(F)(F)F [Example 202, Methyl ((5S,8S,9S,14S)-11-(4-(1-(difluoromethyl)-1H-pyrazol-3-yl)-2,6-difluorobenzyl)-16,16,16-trifluoro-9-hydroxy-15,15-dimethyl-8-(4-(6-(6-(oxetan-3-yl)-3,6-diazabicyclo[3.1.1]heptan-3-yl)pyridin-3-yl)benzyl)-3,6,13-trioxo-5-(1,1,1-trifluoro-2-methylpropan-2-yl)-2-oxa-4,7,11,12-tetraazahexadecan-14-yl)carbamate]	9.67	–
COC(=O)N[C@H](C(=O)N[C@@H](Cc1ccc(C#Cc2ccc(N3CCN4CCOC[C@H]4C3)nc2)cc1)[C@@H](O)CN(Cc1c(F)cc(-c2ccn(CC(F)F)n2)cc1F)NC(=O)[C@@H](NC(=O)OC)C(C)(C)C(F)(F)F)C(C)(C)C(F)(F)F [Example 10, Methyl ((5S,8S,9S,14S)-11-(4-(1-(2,2-difluoroethyl)-1H-pyrazol-3-yl)-2,6-difluorobenzyl)-16,16,16-trifluoro-8-(4-((6-((R)-hexahydropyrazino[2,1-c][1,4]oxazin-8(1H)-yl)pyridin-3-yl)ethynyl)benzyl)-9-hydroxy-15,15-dimethyl-3,6,13-trioxo-5-(1,1,1-trifluoro-2-methylpropan-2-yl)-2-oxa-4,7,11,12-tetraazahexadecan-14-yl)carbamate]	3.46	–
